Measurements reported in the supplement of paper PMC10307832.

Tests used:
Experiment in all cases: relative viability (nuclei count vs DMSO), 5 days (fraction); higher = more cells survive
XMD8-85 + Pictilisib = compound: CN1CCN(CC1)C2=CC(=C(C=C2)NC3=NC=C4C(=N3)N(C5=CC=CC=C5C(=O)N4C)C)OC [XMD8-85] + CS(=O)(=O)N1CCN(Cc2cc3nc(-c4cccc5[nH]ncc45)nc(N4CCOCC4)c3s2)CC1 [Pictilisib] (partner 1 µM)
Outline: (§1)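 Relative viability divides the nuclei count in treated wells by that in vehicle wells. Lung cancer cell lines were seeded in 1536-well plates, dosed by pin tool the next day, and fixed and stained after 5 days in one step with final 0.05% Triton X-100, 1% formaldehyde and 1 ug/ml Hoechst. Dosing was a single drug or a fixed anchor-drug dose plus five library-drug doses (not always all listed) in √10 steps, and values are medians of duplicate plates imaged at 4×.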

XMD8-85 + Foretinib = compound: CN1CCN(CC1)C2=CC(=C(C=C2)NC3=NC=C4C(=N3)N(C5=CC=CC=C5C(=O)N4C)C)OC [XMD8-85] + COc1cc2c(Oc3ccc(NC(=O)C4(C(=O)Nc5ccc(F)cc5)CC4)cc3F)ccnc2cc1OCCCN1CCOCC1 [Foretinib] (partner 0.25 µM)
Outline: as §1

4EGI-1 + Olaparib = compound: O=C(O)C(Cc1ccccc1[N+](=O)[O-])=NNc1nc(-c2ccc(Cl)c(Cl)c2)cs1 (mixture of isomers) [4EGI-1] + O=C(c1cc(Cc2n[nH]c(=O)c3ccccc23)ccc1F)N1CCN(C(=O)C2CC2)CC1 [Olaparib] (partner 8 µM)
Outline: as §1

4EGI-1 + Tozasertib = compound: O=C(O)C(Cc1ccccc1[N+](=O)[O-])=NNc1nc(-c2ccc(Cl)c(Cl)c2)cs1 (mixture of isomers) [4EGI-1] + Cc1cc(Nc2cc(N3CCN(C)CC3)nc(Sc3ccc(NC(=O)C4CC4)cc3)n2)n[nH]1 [Tozasertib] (partner 0.1 µM)
Outline: as §1

Cell Line	relative viability (XMD8-85 + Pictilisib; first compound 0.08 µM)	relative viability (XMD8-85 + Pictilisib; first compound 0.253 µM)	relative viability (XMD8-85 + Pictilisib; first compound 0.8 µM)	relative viability (XMD8-85 + Pictilisib; first compound 2.53 µM)	relative viability (XMD8-85 + Pictilisib; first compound 8 µM)	relative viability (XMD8-85 + Foretinib; first compound 0.08 µM)	relative viability (XMD8-85 + Foretinib; first compound 0.253 µM)	relative viability (XMD8-85 + Foretinib; first compound 0.8 µM)	relative viability (XMD8-85 + Foretinib; first compound 2.53 µM)	relative viability (XMD8-85 + Foretinib; first compound 8 µM)	relative viability (4EGI-1 + Olaparib; first compound 0.5 µM)	relative viability (4EGI-1 + Olaparib; first compound 1.581 µM)	relative viability (4EGI-1 + Olaparib; first compound 5 µM)	relative viability (4EGI-1 + Olaparib; first compound 15.81 µM)	relative viability (4EGI-1 + Olaparib; first compound 50 µM)	relative viability (4EGI-1 + Tozasertib; first compound 0.5 µM)	relative viability (4EGI-1 + Tozasertib; first compound 5 µM)	relative viability (4EGI-1 + Tozasertib; first compound 15.81 µM)	relative viability (4EGI-1 + Tozasertib; first compound 50 µM)	relative viability (4EGI-1 + Tozasertib; first compound 1.581 µM)
LC-2-ad	0.433	0.497	0.543	0.483	0.276	0.866	0.976	0.995	0.785	0.607	0.631	0.617	0.645	0.523	0.309	0.415	0.483	0.347	0.232	–
EKVX	0.454	0.467	0.416	0.451	0.441	0.716	0.864	0.836	0.971	0.664	0.838	–	0.862	0.692	0.592	0.434	0.433	0.368	0.371	0.359
LCLC-103H	0.606	0.615	0.66	0.598	0.462	0.842	0.919	0.692	0.857	0.554	0.72	0.658	0.728	0.699	0.415	0.557	0.537	0.434	0.394	0.479
NCI-H1651	0.527	0.454	0.584	0.534	0.44	0.857	0.769	0.712	0.799	0.631	0.186	0.176	0.185	0.189	0.151	0.704	0.678	0.383	0.372	0.518
SK-LU-1	0.397	–	0.569	0.6	0.522	0.845	0.825	0.841	0.772	0.674	0.484	0.448	0.439	0.431	0.224	0.374	0.381	0.259	0.227	0.335
NCI-H2405	0.388	0.528	0.402	0.373	0.303	1.07	1.08	1.07	1.04	0.984	0.909	–	0.883	0.866	0.395	0.723	0.815	0.789	0.839	0.645
HCC-15	0.684	0.691	0.76	0.728	0.616	1.05	1.01	0.963	1.05	0.766	0.716	0.691	0.634	0.676	0.517	0.331	0.5	0.308	0.155	0.377
NCI-H1650	0.508	0.501	0.64	0.539	0.226	1.12	1.19	1.17	0.863	0.32	0.757	–	0.803	0.537	0.214	0.474	0.413	0.327	0.267	–
COR-L23	0.8	0.717	1.01	0.798	0.577	1.02	1.05	1.06	0.998	0.773	0.35	0.217	0.344	0.271	0.175	0.215	0.189	0.157	0.0963	0.145
PC-3 [JPC-3]	0.717	0.666	0.766	0.879	0.672	1.05	1.04	1.04	1.19	0.912	1.16	–	1.17	0.526	0.484	0.881	0.825	–	0.711	0.863
A-427	0.683	0.808	0.813	0.737	0.527	1.22	1.03	1.12	0.889	0.828	0.777	–	0.766	0.643	0.276	0.192	0.189	0.205	0.0979	0.195
NCI-H1755	0.369	0.426	0.448	0.552	0.357	0.873	0.921	0.88	0.97	0.783	0.936	0.811	0.858	0.78	0.616	0.625	0.525	0.486	0.355	0.569
NCI-H2347	0.637	0.531	0.555	0.437	0.604	0.75	0.836	0.829	1.07	0.758	0.555	0.487	0.567	0.607	0.533	0.589	0.557	0.46	0.467	–
NCI-H2170	0.26	0.341	0.335	0.305	0.289	1.04	1.01	0.985	1.02	0.965	0.625	0.541	0.567	0.36	0.189	0.829	0.628	0.617	0.314	0.728
LXF-289	0.682	–	0.82	0.874	0.781	0.887	0.997	0.993	0.977	0.812	1.09	0.975	1.02	1.05	0.513	0.203	0.204	0.151	0.168	0.22
NCI-H1666	0.522	0.375	0.391	0.312	0.44	0.991	0.988	0.963	0.893	0.886	0.74	0.727	0.778	0.622	0.488	0.61	0.647	0.448	0.328	0.535
HCC-78	0.267	0.22	0.228	0.206	0.192	0.539	0.572	0.519	0.537	0.531	1.05	–	0.881	0.816	1.13	0.538	0.336	1.56	0.289	–
NCI-H2126	0.503	0.497	0.531	0.522	0.429	1.07	1.03	1.13	0.996	0.935	1	0.927	0.858	0.942	0.654	1	0.861	0.822	0.741	–
NCI-H1993	0.859	0.795	0.822	0.701	0.814	0.742	0.894	0.806	0.706	0.61	1.11	0.965	1.21	0.967	0.522	0.552	0.563	0.511	0.492	0.627
LOU-NH91	0.52	0.566	0.526	0.516	0.471	–	0.966	0.863	1.02	0.843	0.95	–	0.911	0.738	0.564	0.671	0.666	0.432	0.69	–
NCI-H1437	0.4	0.376	0.433	0.333	0.318	1.3	1.28	1.32	1.08	0.867	0.655	0.625	0.589	0.395	0.194	0.416	0.399	0.318	0.175	0.378
H3255	0.565	0.465	–	0.531	0.414	1.03	0.917	0.892	0.931	0.627	0.591	0.501	0.541	0.5	0.405	0.789	0.726	0.571	0.551	0.43
NCI-H322M	0.551	0.501	0.502	0.527	0.409	0.733	0.856	1.01	0.8	0.631	0.761	–	0.795	0.761	0.457	0.457	0.509	0.469	0.29	–
UMC-11	0.696	0.757	0.922	0.796	0.513	1.17	0.949	1.21	0.913	0.651	0.36	0.35	0.369	0.332	0.222	0.192	0.203	0.201	0.21	0.198
NCI-H661	0.406	0.419	0.412	0.366	0.357	1.16	1.09	0.989	1.07	0.91	0.765	0.637	0.584	0.454	0.336	0.336	0.34	0.355	0.283	0.34
NCI-H1915	0.985	0.944	0.936	1.02	0.676	1.16	1.1	1.16	1.02	0.83	0.261	0.207	0.275	0.207	0.152	0.448	0.421	0.326	0.201	0.327
NCI-H2009	0.753	0.722	0.892	0.653	0.364	1.24	1.25	1.23	1.08	0.516	0.768	0.63	0.647	0.421	0.374	0.813	0.784	0.697	0.211	0.709
